Here are results for 2 compounds from patent US20150065472A1, “INTRAUTERINE APPLICATION OF 18-METHYL-15SS,16SS-METHYLENE-19-NOR-20-SPIROX-4-EN-3-ONE SYSTEMS, INTRAUTERINE SYSTEMS CONTAINING 18-METHYL-15SS,16SS-METHYLENE-19-NOR-20-SPIROX-4-EN-3-ONE, AS WELL AS THE USE THEREOF IN CONTRACEPTION AND GYNAECOLOGICAL THERAPY” (BAYER PHARMA AKTIENGESELLSCHAFT, priority 2012, published 2015).

Data set [1] is described as follows: In-vitro metabolic studies (liver). In kind it is in vitro ADME. As to conditions: all in-vitro metabolic studies (liver).
Data set [2] is described as follows: In-vitro break-down (liver) for humans. In kind it is in vitro ADME. As to conditions: human liver in vitro.
For data set [3], the system named is serum LH level of ovary-resected rats. Nature of the data set: Serum luteinizing hormone (LH) level in ovary-resected rats carrying IUS (rod). In kind it is in vivo, rat. As to conditions: FIG. 2/4. The protocol:
Serum levels of luteinizing hormone (LH) are used for detecting systemic effects of the locally administered progestin. Basal serum-LH levels of ovary-resected rats are elevated compared to the levels of intact control animals. Undesired systemic efficacy of the uterine-administered progestin can be detected by a decrease in the LH level.
(§1) Ovary-resected female rats were treated with estradiol (E2) for three days (0.2 μg/day/animal, subcutaneous dosing). On day 4, an IUS (rod) was implanted into the right uterine horn of each animal. The left uterine horn remained untreated for internal comparison. Administration of E2 was continued with a daily dose of 0.1 μg/animal to ensure responsiveness of the uterus (maintaining progesterone-receptor expression) to progestins. Blood was taken for LH level measurements on days 4, 10 and 17.

The target of data set [4] is T1, human androgen receptor (hAR) (Homo sapiens, UniProt P10275).
T1 construct: expressed in transfected cells; host or cells: PC3 (human prostate carcinoma) cells, stably transfected with hAR and MTV-luc reporter
T1 sequence (P10275 1-920): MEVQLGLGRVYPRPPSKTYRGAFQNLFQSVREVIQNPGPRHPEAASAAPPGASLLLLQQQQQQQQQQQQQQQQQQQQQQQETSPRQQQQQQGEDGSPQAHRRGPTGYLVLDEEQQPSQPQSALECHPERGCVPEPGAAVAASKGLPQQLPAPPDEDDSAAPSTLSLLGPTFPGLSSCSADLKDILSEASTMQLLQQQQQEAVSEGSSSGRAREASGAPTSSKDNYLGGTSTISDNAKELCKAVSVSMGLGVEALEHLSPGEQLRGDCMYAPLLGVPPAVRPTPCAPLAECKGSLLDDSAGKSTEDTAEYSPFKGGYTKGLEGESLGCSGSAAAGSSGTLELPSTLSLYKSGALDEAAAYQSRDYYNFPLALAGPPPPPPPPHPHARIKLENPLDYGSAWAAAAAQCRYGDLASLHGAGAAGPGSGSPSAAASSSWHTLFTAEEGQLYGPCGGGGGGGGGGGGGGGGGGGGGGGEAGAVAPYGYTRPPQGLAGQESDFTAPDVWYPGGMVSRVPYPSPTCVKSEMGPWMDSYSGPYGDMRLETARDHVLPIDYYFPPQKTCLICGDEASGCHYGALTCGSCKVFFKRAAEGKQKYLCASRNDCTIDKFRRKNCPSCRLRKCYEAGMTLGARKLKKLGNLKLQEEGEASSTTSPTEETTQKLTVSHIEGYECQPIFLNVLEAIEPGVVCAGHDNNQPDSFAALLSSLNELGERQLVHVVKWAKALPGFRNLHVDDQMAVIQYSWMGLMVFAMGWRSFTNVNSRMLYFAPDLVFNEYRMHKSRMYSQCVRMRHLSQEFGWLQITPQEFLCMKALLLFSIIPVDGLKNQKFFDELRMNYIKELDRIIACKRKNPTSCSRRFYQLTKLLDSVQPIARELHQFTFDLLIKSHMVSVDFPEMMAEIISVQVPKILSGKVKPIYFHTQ
Nature of the data set: hAR transactivation in PC3 cells stably transfected with hAR and MTV-luc reporter gene. In kind it is cell-based. As to conditions: MTV-luc reporter. The text has this: The action on the human androgen receptor (hAR) was studied by means of transactivation analyses. For this, different concentrations of the test substances were to cells with stable expression of the human androgen receptor, and activation of the androgen receptor can be detected via a reporter gene.
For transactivation studies, PC3 (human prostate carcinoma) cells which have been stably transfected with hAR and the MTV-luc reporter gene were used. The culture medium used was RPM! medium (without L-glutamine; without Phenol Red) #E15-49 PAA L-glutamine 200 mM #25030-024 Gibco BRL 100 U/100 μg/ml penicillin/streptomycin Gibco # 15140-122, with 10% foetal calf serum (FCS). The cells were cultured at 37° C. and 5% CO2. The test medium corresponded to the culture medium, except that 10% FCS was replaced with 5% activated carbon-treated FCS (CCS). Cells were seeded in wells of a 96 well plate (“CulturPlate” from Packard #6005180) with 2×10^4 cells/well/200 μl of test medium. The cells were incubated with different concentrations of the test substances, and 80 μl of substrate were measured using the “steadylite HTS Reporter Gene Assay System” from Perkin Elmer.

Data set [5] has as its system IGFBP-1 gene expression. Nature of the data set: Gene expression analysis in rat uterine tissue after IUS (rod) administration. As to conditions: rat uterus, FIG. 3/4. In kind it is in vivo. As for the experimental part:
(§2) The local uterine action of the progestin compared to systemic side effects (dissociation) was investigated on the basis of studies using rats. The uterus of ovary-resected rats responds to implantation of progestin-containing IUS (rods) with decidualization and weight gain. The local progestin effects were also determined on the basis of changes in gene expression.
Ovary-resected female rats were treated with estradiol (E2) for three days (0.2 μg/day/animal, subcutaneous dosing). On day 4, an IUS (rod) was implanted into the right uterine horn of each animal. The left uterine horn remained untreated for internal comparison. Administration of E2 was continued with a daily dose of 0.1 μg/animal to ensure responsiveness of the uterus (maintaining progesterone-receptor expression) to progestins. Blood was taken for LH level measurements on days 4, 10 and 17. […]
Gene expression analysis was carried out with from 50 ng to 200 ng of cDNA per reaction on an SDS7900HT Real.time PCR system (Applied Biosystems, Carlsbad, USA) using TaqMan probes (Applied Biosystems; IGFBP-1 Rn00565713_m1, Cyp26a1 Rn00590308_m1, PPIA Rn00690933_m1) and the Fast Blue qPCR MasterMix Plus (Eurogentec, Liège, Belgium; #RT-QP2X-03+FB). For relative quantification, cyclophilin A (PPIA) was used as an endogenous control. Relative expression levels were calculated according to the comparative delta delta CT method.

Data set [6] deals with uterus of ovary-resected rats. Nature of the data set: Uterine weight gain after implantation of progestin-containing IUS (rod) in ovary-resected rats. Format: in vivo, rat. As to conditions: ovary-resected E2-treated rats, IUS (rod) in right uterine horn, FIG. 1/4. The protocol: as §2, §1
Data set [7] in a line: Break-down in vivo in animal species. As to conditions: all animal species studied in vivo.

Take `CC[C@]12CCC3C4CCC(=O)C=C4CCC3C1[C@@H]1C[C@@H]1[C@@]21CCCO1` (stereo partly drawn) [compound A, 18-methyl-15β,16β-methylene-19-nor-20-spirox-4-en-3-one]: the “break-down rate in in-vitro metabolic studies (liver)” value in data set [1] is on record as “very fast”. Besides, in data set [2], the “break-down rates in vitro (liver) for humans” value is “very rapid”. Besides, the “LH decrease (systemic side effect)” value in data set [3] (10 μg/animal and day dose of compound A) is on record as “exception”; in data set [3] (compound A release range tested 0.6-10 μg per animal and day (except the 10 μg dose)) it was “no LH decrease”. Further, the EC50 (as a rule, the concentration needed to bring the measured effect to its halfway point) in data set [4] was 0.0069 µM. Also, the “rate of release from the IUS at which IGFBP-1 gene expression is induced, lower than with levonorgestrel” value in data set [5] was “approx. 7 ×”. Further, the “local efficacy by way of weight gain in the IUS-carrying uterine horn” value in data set [6] is given as “dose-dependent local efficacy”. Also, the “break-down rate in vivo” value in data set [7] is reported as “very fast”.

Take `CC[C@]12CCC3C4CCC(=O)C=C4[C@H]4C[C@H]4C3C1[C@@H]1C[C@@H]1[C@@]21CCCO1` (stereo partly drawn) [compound B, 18-methyl-6α,7α,15β,16β-dimethylene-19-nor-20-spirox-4-en-3-one]: in data set [1], the “break-down rate in in-vitro metabolic studies (liver)” value was “very fast”. Further, the “break-down rates in vitro (liver) for humans” value in data set [2] is given as “very rapid”. In addition, the “LH decrease (systemic side effect)” value in data set [3] (compound B release range tested 1-45 μg/animal and day) was “no LH decrease”. For the same compound, a half-maximal response in data set [4] (EC50) required 0.056 µM. For the same compound, the “local efficacy by way of weight gain in the IUS-carrying uterine horn” value in data set [6] is listed as “dose-dependent local efficacy”. Further, the “break-down rate in vivo” value in data set [7] is given as “very fast”.
